Data published in ChEMBL document CHEMBL1157753, “Stereochemical requirements for the mineralocorticoid receptor antagonist activity of dihydropyridines” (J Med Chem, 2010).

How the values were obtained:
[1] = biological target: T1, Mineralocorticoid receptor (Homo sapiens, UniProt P08235)
T1 sequence (P08235 whole entry): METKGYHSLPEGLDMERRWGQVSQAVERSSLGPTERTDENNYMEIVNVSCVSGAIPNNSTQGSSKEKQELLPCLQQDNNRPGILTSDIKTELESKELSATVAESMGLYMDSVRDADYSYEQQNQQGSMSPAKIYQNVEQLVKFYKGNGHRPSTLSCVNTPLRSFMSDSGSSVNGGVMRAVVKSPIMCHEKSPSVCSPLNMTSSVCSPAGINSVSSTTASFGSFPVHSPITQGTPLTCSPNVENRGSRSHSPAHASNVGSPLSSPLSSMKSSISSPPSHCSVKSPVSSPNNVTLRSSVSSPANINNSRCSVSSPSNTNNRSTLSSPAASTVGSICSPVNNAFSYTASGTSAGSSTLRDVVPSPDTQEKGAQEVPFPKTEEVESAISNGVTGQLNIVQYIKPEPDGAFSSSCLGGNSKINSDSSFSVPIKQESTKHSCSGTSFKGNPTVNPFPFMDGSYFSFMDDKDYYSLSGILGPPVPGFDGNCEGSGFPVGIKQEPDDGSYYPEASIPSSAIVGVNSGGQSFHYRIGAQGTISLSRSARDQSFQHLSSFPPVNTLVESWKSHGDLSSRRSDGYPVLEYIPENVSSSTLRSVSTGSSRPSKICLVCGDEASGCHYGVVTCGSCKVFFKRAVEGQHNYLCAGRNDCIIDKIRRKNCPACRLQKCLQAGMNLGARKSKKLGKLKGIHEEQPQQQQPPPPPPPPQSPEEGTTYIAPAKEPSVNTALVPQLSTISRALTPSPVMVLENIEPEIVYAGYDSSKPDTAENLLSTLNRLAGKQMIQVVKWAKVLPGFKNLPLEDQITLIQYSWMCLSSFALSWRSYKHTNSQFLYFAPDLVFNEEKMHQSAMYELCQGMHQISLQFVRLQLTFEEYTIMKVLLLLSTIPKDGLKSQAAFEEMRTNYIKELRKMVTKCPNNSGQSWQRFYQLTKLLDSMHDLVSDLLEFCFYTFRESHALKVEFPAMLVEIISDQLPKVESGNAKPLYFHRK
Description: Antagonist activity at Gal4-fused mineralocorticoid receptor expressed in human HuH7 cells assessed as inhibition of aldosterone-induced receptor activation by luciferase reporter gene assay

[2] = biological target: Voltage-gated L-type calcium channel (Rattus norvegicus, UniProt P22002+Q02485+P27732); experiment: Inhibition of L-type calcium channel in rat A10 cells assessed as inhibition of depolarization-induced increase in calcium flux after 10 mins by FLIPR assay
Glucocorticoid receptor = biological target: T2, Glucocorticoid receptor (Homo sapiens, UniProt P04150); experiment: Inhibition of glucocorticoid receptor
T2 sequence (P04150 whole entry): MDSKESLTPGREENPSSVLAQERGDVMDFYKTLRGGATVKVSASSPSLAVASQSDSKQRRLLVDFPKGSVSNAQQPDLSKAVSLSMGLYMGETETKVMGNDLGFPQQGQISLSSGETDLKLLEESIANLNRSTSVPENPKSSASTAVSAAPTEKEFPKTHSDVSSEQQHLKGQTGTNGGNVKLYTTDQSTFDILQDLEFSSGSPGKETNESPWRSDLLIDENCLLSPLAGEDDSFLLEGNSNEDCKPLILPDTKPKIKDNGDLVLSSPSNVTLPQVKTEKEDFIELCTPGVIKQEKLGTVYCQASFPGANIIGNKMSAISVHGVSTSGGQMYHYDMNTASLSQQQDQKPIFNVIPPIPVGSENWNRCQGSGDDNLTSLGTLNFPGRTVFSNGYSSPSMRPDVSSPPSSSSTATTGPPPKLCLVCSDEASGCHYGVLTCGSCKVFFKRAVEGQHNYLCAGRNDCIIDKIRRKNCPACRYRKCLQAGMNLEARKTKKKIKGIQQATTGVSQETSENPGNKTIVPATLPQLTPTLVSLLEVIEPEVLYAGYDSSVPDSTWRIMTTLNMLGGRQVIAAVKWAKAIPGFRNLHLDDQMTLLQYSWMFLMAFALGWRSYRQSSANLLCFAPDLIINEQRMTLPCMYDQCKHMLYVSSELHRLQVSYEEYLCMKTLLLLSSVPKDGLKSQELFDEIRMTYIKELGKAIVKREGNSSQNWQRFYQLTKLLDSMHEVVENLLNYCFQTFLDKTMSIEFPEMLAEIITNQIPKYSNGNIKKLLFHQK

Androgen receptor = biological target: T3, Androgen receptor (Homo sapiens, UniProt P10275); experiment: Inhibition of androgen receptor
T3 sequence (P10275 whole entry): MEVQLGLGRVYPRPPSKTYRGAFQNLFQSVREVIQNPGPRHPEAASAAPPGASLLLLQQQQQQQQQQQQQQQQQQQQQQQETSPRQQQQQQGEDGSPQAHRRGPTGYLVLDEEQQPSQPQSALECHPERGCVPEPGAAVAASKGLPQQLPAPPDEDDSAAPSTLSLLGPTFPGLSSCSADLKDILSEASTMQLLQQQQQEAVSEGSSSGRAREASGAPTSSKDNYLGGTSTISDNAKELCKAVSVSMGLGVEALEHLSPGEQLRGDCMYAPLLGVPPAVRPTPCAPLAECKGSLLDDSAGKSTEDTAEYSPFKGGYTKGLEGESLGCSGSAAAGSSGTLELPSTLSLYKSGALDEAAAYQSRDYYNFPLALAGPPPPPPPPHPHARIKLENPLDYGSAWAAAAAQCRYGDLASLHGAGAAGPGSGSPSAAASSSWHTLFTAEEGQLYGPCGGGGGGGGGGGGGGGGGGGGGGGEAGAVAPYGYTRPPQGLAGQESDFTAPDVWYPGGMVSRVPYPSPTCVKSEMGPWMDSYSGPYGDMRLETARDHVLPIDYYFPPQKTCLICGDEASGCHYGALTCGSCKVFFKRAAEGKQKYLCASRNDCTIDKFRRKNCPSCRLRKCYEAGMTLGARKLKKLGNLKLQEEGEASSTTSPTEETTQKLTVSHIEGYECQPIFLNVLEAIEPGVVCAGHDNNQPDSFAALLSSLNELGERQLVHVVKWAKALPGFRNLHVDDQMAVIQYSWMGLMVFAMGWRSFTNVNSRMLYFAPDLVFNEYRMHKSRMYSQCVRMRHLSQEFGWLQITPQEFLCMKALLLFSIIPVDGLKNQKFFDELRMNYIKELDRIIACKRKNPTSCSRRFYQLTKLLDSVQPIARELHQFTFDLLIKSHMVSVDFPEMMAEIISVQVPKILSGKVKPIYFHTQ

Progesterone receptor = biological target: T4, Progesterone receptor (Homo sapiens, UniProt P06401); experiment: Inhibition of progesterone receptor
T4 sequence (P06401 whole entry): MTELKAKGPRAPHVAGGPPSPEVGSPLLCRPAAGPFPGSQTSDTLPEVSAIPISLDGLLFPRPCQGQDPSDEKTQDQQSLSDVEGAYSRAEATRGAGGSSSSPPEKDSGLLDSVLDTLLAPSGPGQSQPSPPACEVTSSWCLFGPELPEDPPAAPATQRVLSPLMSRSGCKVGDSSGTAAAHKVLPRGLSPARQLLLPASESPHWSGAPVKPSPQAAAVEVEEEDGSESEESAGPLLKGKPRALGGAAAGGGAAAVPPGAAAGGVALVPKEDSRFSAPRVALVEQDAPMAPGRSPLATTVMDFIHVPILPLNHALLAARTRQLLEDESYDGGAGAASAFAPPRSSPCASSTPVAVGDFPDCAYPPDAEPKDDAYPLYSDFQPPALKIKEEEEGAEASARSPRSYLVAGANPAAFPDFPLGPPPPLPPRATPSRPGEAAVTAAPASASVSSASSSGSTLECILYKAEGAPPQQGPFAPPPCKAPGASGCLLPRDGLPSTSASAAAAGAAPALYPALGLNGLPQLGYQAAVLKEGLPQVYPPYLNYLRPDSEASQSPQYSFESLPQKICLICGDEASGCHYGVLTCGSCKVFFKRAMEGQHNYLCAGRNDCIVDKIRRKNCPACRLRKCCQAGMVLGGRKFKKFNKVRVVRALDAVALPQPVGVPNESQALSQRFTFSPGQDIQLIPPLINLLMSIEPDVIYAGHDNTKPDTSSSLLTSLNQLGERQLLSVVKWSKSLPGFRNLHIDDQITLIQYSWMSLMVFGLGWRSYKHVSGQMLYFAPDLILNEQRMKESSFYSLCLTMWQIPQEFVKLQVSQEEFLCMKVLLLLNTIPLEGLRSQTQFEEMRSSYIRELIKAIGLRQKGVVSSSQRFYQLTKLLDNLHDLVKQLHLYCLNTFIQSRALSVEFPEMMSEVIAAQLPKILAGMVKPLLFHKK

Estrogen receptor = biological target: T5, Estrogen receptor (Homo sapiens, UniProt P03372); experiment: Inhibition of estrogen receptor
T5 sequence (P03372 whole entry): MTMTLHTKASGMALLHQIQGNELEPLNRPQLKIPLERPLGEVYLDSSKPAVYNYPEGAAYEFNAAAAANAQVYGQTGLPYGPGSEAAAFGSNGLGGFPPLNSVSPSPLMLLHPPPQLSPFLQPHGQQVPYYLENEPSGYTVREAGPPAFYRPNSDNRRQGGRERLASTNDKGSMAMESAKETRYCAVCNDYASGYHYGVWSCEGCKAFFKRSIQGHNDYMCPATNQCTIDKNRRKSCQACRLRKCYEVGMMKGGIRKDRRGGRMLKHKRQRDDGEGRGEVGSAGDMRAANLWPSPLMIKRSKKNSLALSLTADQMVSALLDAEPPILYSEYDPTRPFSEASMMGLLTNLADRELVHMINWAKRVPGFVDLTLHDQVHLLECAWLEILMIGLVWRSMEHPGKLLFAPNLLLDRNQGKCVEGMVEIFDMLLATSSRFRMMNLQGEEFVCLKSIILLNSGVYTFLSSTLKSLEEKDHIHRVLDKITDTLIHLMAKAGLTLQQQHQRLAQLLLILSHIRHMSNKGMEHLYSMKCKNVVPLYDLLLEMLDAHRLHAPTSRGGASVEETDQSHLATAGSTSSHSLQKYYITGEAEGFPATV

Rattus norvegicus = experiment: (§1) Half life in Sprague-Dawley rat at 2 mg/kg, iv by LC/MS/MS analysis; format: ADME, organism-based; set-up: dose 2 mg/kg, route intravenous; settings: in vivo
[3] = Clearance in Sprague-Dawley rat at 2 mg/kg, iv by LC/MS/MS analysis; format: ADME, organism-based; set-up: dose 2 mg/kg, route intravenous; settings: in vivo
[4] = as §1; format: ADME, organism-based; set-up: dose 2 mg/kg, route intravenous; settings: Sprague-Dawley, in vivo
[5] = Volume of distribution at steady state in Sprague-Dawley rat at 2 mg/kg, iv by LC/MS/MS analysis; format: ADME, organism-based; set-up: dose 2 mg/kg, route intravenous; settings: in vivo, read-out: Vdss

| Compound | IC50 [1] | IC50 [2] | other results |
| --- | --- | --- | --- |
| CC1=C(C#N)[C@H](c2ccc(F)cc2Cl)C(C(=O)OC(C)(C)C)=C(C)N1 | 3520 nM | 3840 nM | – |
| CC1=C(C#N)[C@@H](c2ccc(F)cc2Cl)C(C(=O)OC(C)(C)C)=C(C)N1 | 3.7 nM | – | IC50 (Glucocorticoid receptor): 1370 nM; IC50 (Androgen receptor): 246 nM; IC50 (Progesterone receptor): 3520 nM; IC50 (Estrogen receptor): > 10000 nM; t1/2 (Rattus norvegicus): 1.14 h |
| CC1=C(C#N)C(c2ccc(F)cc2Cl)C(C(=O)OC(C)(C)C)=C(C)N1 (racemic) | 59 nM | > 1550 nM | – |
| COC(=O)[C@@H]1CC2=CC(=O)CC[C@]2(C)[C@@]23O[C@@H]2C[C@@]2(C)[C@@H](CC[C@@]24CCC(=O)O4)[C@H]13 [EPLERENONE] | – | > 5000 nM | – |
| CCCC1=C(C(=O)OCC)[C@@H](c2ccnc3ccccc23)C(C#N)=C(C)N1 | 3280 nM | 1330 nM | – |
| COC(=O)C1=C(C)NC(C)=C(C(=O)OC(C)(C)C)[C@H]1c1cccc([N+](=O)[O-])c1 | 536 nM | > 0.5 nM | – |
| COC(=O)C1=C(CCl)NC(C)=C(C#N)[C@H]1c1ccc(F)cc1Cl | 41 nM | 2070 nM | – |
| COC(=O)C1=C(C)NC(C)=C(C#N)[C@H]1c1ccnc2ccccc12 | 77 nM | 7730 nM | – |
| COC(=O)C1=C(CCl)NC(C)=C(C#N)[C@H]1c1ccnc2ccccc12 | 340 nM | 7930 nM | – |
| COC(=O)C1=C(C)NC(C)=C(C#N)[C@@H]1c1ccnc2ccccc12 | 469 nM | 14570 nM | – |
| CCCC1=C(C(=O)OCC)C(c2ccnc3ccccc23)C(C#N)=C(C)N1 (racemic) | 31 nM | 1100 nM | – |
| COC(=O)C1=C(C)NC(C)=C(C(=O)OC(C)(C)C)C1c1cccc([N+](=O)[O-])c1 (racemic) [MEBUDIPINE] | 126 nM | > 20 nM | – |
| COC(=O)C1=C(C)NC(C)=C(C(=O)OC(C)(C)C)[C@@H]1c1cccc([N+](=O)[O-])c1 | 46 nM | 607 nM | IC50 (Glucocorticoid receptor): 3260 nM; IC50 (Androgen receptor): 1270 nM; IC50 (Progesterone receptor): 768 nM |
| COC(=O)C1=C(CCl)NC(C)=C(C#N)[C@@H]1c1ccnc2ccccc12 | 2800 nM | 11270 nM | – |
| CCCC1=C(C(=O)OCC)[C@H](c2ccnc3ccccc23)C(C#N)=C(C)N1 | 10 nM | 2200 nM | IC50 (Glucocorticoid receptor): 270 nM; IC50 (Androgen receptor): 730 nM; IC50 (Progesterone receptor): 1340 nM; IC50 (Estrogen receptor): > 10000 nM; clearance [3]: 9.7 mL/min/kg; half-life [4]: 6.54 h; Vd [5]: 0.42 L/kg |
| COC(=O)C1=C(CCl)NC(C)=C(C#N)[C@@H]1c1ccc(F)cc1Cl | 2200 nM | 570 nM | – |
